Here are results for 3 molecules from US20250051407A1, “De novo designed sequence-specific DNA binding proteins” (University of Washington, priority 2023, published 2025).

“Also recorded” adds a separate entry of the source.

Assay [1] deals with biotinylated target dsDNA with non-biotinylated competitor dsDNA. As to the kind of experiment: Yeast display competition assay with base-substituted competitor dsDNA. Particulars: for DNA binding site specificity: all possible base mutations at each position of the competitor oligo. Type of assay: binding. The text has this:
We used a yeast display competition assay to characterize the DNA binding site specificity of a subset of the designs (FIG. 1A-E, left; FIG. 5). Addition of non-biotinylated competitor dsDNA to biotinylated target sequence reduced binding signal by flow cytometry (FIG. 1A-E, middle). […] For example, in DBP6 (FIG. 1A) R31 and R36 in the design model form bidentate hydrogen bonds with the guanines of base pair positions G12 and C9, respectively, while T32 forms a hydrogen bond with C10.
(§1) For yeast display characterization of individual designs, including competition assays, DNA sequences encoding the proteins of interest were purchased as Integrated DNA Technologies (IDT) E-Blocks™, transformed into yeast cells, and incubated in 96 well culture plates. Labeling with biotinylated dsDNA targets and SAPE/FITC was performed in a 96 well plate format. For yeast display competition assays, labeling was performed without avidity using 1 μM biotinylated dsDNA duplex oligos and an excess of 8 μM non-biotinylated competitor dsDNA duplex oligos. […] Flow cytometry analysis was performed with an Attune NxT™ flow cytometer with autosampler. Flow cytometry data analysis was performed using custom python code and the CytoFlow™ python package. For each individual sample, gating of the expression population was performed using the CytoFlow™ Gaussian Mixture Model and the ratio of SAPE channel intensity to FITC channel intensity (binding signal/expression signal) was calculated for all gated expression events of the sample.

The next assay has as its system 13 unique dsDNA targets. The assay can be described thus: All-by-all yeast surface display screen of DBP design hits. Type of assay: binding. Particulars: for Number of the 13 tested DNA target sequences preferentially bound: 1 μM dsDNA with avidity, including designed target sequence; for Target sequence preference: 13 unique dsDNA targets; for Binding specificity versus design models: all-by-all screen with Rosetta-predicted motifs. Here is the method: And an all-by-all screen of DBP design hits to 13 unique dsDNA targets was performed (FIG. 4, table 2). […] To try to understand these observed binding preferences, each tested DNA sequence was threaded onto each design complex model at all possible base pair alignments, the alternative complex models were relaxed with Rosetta™, and the model with the most favorable Rosetta™ ΔΔG was selected.
Saccharomyces cerevisiae EBY100 strain cultures were grown in C-Trp-Ura medium supplemented with 2% (w/v) glucose. For induction of expression, yeast cells were centrifuged at 6,000 g for 1 min and resuspended in SGCAA medium supplemented with 0.2% (w/v) glucose at the cell density of 1×10^7 cells per ml and induced at 30° C. for 16-24 h. Cells were washed with PBSF (PBS with 1% (w/v) BSA) and labeled with biotinylated targets using two labeling methods: with-avidity and without-avidity labeling. For the with-avidity method, the cells were incubated with biotinylated target, together with anti-c-Myc fluorescein isothiocyanate (FITC, Miltenyi Biotech) and streptavidin-phycoerythrin (SAPE, ThermoFisher). The concentration of SAPE in the with-avidity method was used at one-quarter of the concentration of the biotinylated targets. For the without-avidity method, the cells were first incubated with biotinylated targets, washed and secondarily labeled with SAPE and FITC.
as §1

For a further assay, the system named is dsDNA target. The assay can be described thus: Site saturation mutagenesis (SSM) library sorting, protein-side footprinting. As to conditions: for Substitutions improving binding: every residue substituted with each of the 20 amino acids; for Tolerance of positions to substitution: interface, core and surface positions. Type of assay: binding. Here is the method:
As disclosed in the examples that follow, the contributions of each amino acid to binding for additional designs, high-resolution footprints of the binding surface as generated was assessed by sorting site saturation mutagenesis libraries (SSMs) in which every residue was substituted with each of the 20 amino acids one at a time for DBPs 1, 6, and 35. Permissible substitutions for many of the polypeptides of the disclosure are provided in columns 2 and 3 Tables 4-19.
Thus, in some embodiments, substitutions relative to the reference sequence are selected from residues listed in columns 2 or 3 of one of Tables 4-19. In other embodiments, substitutions relative to the reference sequence are selected from residues listed in column 2 of one of Tables 4-19. Column 2 lists the “best” substitutions, which retain or improve DNA target binding activity relative to the reference sequence. Column 3 lists “permissible” substitutions, which retain binding to the DNA target sequence.
To assess the contributions of each amino acid to binding for additional designs, high-resolution footprints of the binding surface as generated by sorting site saturation mutagenesis libraries (SSMs) in which every residue was substituted with each of the 20 amino acids one at a time for DBPs 1, 6, and 35. […] In a small number of cases, substitutions led to notable improvements in binding affinity.
Cell sorting of labeled yeast pools was performed using a Sony SH800S cell sorter. Libraries of designs were sorted using the with-avidity method for the first few rounds of screening to exclude weak binder candidates, followed by several without-avidity sorts with different concentrations of targets. For SSM libraries, two rounds of with-avidity sorts were applied and in the third round of screening the libraries were titrated with a series of decreasing concentrations of targets to enrich mutants with beneficial mutations.
The Pear program was used to assemble the fastq files from the deep sequencing runs. Translated, assembled reads were matched against the ordered design to determine the number of counts for each design in each pool. In each sequenced pool, binder enrichment was calculated by determining the percent of reads for each binder design in the pool and dividing this number by the same value in the naive expression sort pool. […] For SSM libraries, apparent SC50 was estimated using the fitting procedure described in Longxing et al. (15)

Assay [2] deals with synTF-specific cis-regulatory elements (CRE) in HEK293T cells. The assay can be described thus: Transcriptional activation by synTFs in HEK293T cells (ENGRAM). As to conditions: DBP fused to GCN4 dimerization domain and VP64; HEK293T cells expressing PEmax; dependent on spacing between motifs. Type of assay: cell-based. From the text: Next, we investigated whether the DBPs can be used as activators in mammalian cells. A set of synthetic transcription factors (synTFs) were created by fusing the GCN4 dimerization domain and the VP64 activation domain to the C-termini of DBPs 9, 35opt, 48, 57, and 60 which recognize 3 unique motifs. The dimerization domain allows the DBPs to recognize a palindromic target sequence consisting of two binding motifs, improving the binding affinity to the DNA sequence (FIG. 2C). We created synTF specific cis-regulatory elements (CRE) with 4 repeats spaced by 6 bp to drive the expression of downstream genes, and used the ENGRAM (43) recording technology to measure the activity of the synTFs in HEK293 cells. In ENGRAM, each CRE drives the expression of a uniquely barcoded pegRNA, which upon expression is recorded into the DNA TAPE at the HEK3 locus by prime-editor (PEmax); the activity of individual synTFs can be measured as the abundance of the barcode on the DNA TAPE (FIG. 2C). We first tested 3 different spacings-1 bp, 3 bp, and 5 bp-between the palindromic binding motifs to maximize the recorder activity. 3 synTF specific recorders and 1 TCF-LEF-recorder (negative control) were mixed with ratio 2:2:2:1 and co-transfected with synTFs into the HEK293T cells expressing PEmax. Cells were harvested and analyzed 2 days post-transfection. After analyzing the barcode abundance on the DNA TAPE, we observed 3-5 fold activation for DBP9/DBP35 and DBP57/DBP60 (FIG. 2D).
HEK293T cells expressing PEmax™ were cultured in DMEM High glucose (GIBCO), supplemented with 10% Fetal Bovine Serum (Rocky Mountain Biologicals) and 1% penicillin-streptomycin (GIBCO). Cells were grown with 5% CO2 at 37° C. 1×10^5 cells were seeded on a 48-well plate a day before transfection. Enhancer plasmid and binder plasmid were mixed with a ratio of 2:1. Enhancer variants and background control were mixed with a ratio of 2:2:2:1. A total of 300 ng of plasmid were transfected using Lipofectamine™ 3000 (ThermoFisher, L3000015), following the manufacturer's protocol. Cells were harvested 2 days post-transfection. Genomic DNA was extracted based on the protocol described earlier (43). Briefly, cells were lysed using freshly prepared lysis buffer (10 mM Tris-HCl, pH 7.5; 0.05% SDS; 25 µg/ml protease (ThermoFisher)) for each well. The genomic DNA mixture was incubated at 50° C. for 1 h, followed by an 80° C. enzyme inactivation step for 30 min. The DNA TAPE was amplified from the genomic DNA directly for next generation sequencing. Recorded information was extracted via custom analysis code. Each enhancer has a unique barcode representing its activity. Transcription activation was measured as the fold change in the barcode abundance relative to the negative control barcode. All measurements were performed in triplicates.

Consider “DBP6: designed DNA-binding protein, SEQ ID NO: 4, DNA target B (DWAARAAAARRLRKERGLTQAELGELAGVSRTTVSRIELGRPDVSQASVDAVLAVL)”, for which the “DNA binding site specificity” value in assay [1] is “specificity for a 6 nucleotide stretch (TGCACA) with peripheral dependence on T8 and A13; also recorded: specificities consistent with the designed sidechain-base interactions; also recorded: specificity for the GCxG motif”. In the assay with 13 unique dsDNA targets, the “Number of the 13 tested DNA target sequences preferentially bound” value is “less than 3”, the Target sequence preference entry is listed as “strong preference for only their designed target sequence” and the “Binding specificity versus design models” value is “bound with specificity closely consistent with the design models”. Also, in the assay with dsDNA target, the Substitutions improving binding result is “relatively few mutations at interface positions improved binding with the exceptions of L39, D43, and 548”; the “Tolerance of positions to substitution” value is “most positions at the interface and the core were largely conserved while positions at the surface were more tolerant of substitutions”.

“DBP1: designed DNA-binding protein, SEQ ID NO: 1, DNA target A (TARELEVAALIAQGRSNREIAEELNISERTVERYVRRILRKLGLRNRAQIAAWVIRRS)”: the “DNA binding site specificity” value in assay [1] is reported as “specificities consistent with the designed sidechain-base interactions”. For the same molecule, the Target sequence preference entry in the assay on 13 unique dsDNA targets was “strong preference for 2 or 3 of the sequence targets”. For the same molecule, the “Tolerance of positions to substitution” value in the assay with dsDNA target was “most positions at the interface and the core were largely conserved while positions at the surface were more tolerant of substitutions”.

B1: DBP35: designed DNA-binding protein, SEQ ID NO: 15, DNA target B (protein)
chain: GFGRAVKEKRKELGLTQKEFAEKAGLSRRTIIRIERGYIVPPKATKEKIAKALGTSVEELEQA
For B1, in assay [1], the “Number of base positions of specificity” value is 3 base positions and the “DNA binding site specificity” value was “specificities consistent with the designed sidechain-base interactions”. The “Fold activation of synTFs measured as normalized barcode abundance in the DNA TAPE” value in assay [2] is 3-5 fold. Moreover, in the assay with 13 unique dsDNA targets, the “Number of the 13 tested DNA target sequences preferentially bound” value is recorded as “less than 3” and the “Binding specificity versus design models” value is “bound with specificity closely consistent with the design models”. Further, in the assay on dsDNA target, the Substitutions improving binding result was “substitutions of R33 and K18 improved binding”; the “Tolerance of positions to substitution” value is “most positions at the interface and the core were largely conserved while positions at the surface were more tolerant of substitutions”.
